Values quoted from earlier work, collected in US20170022147A1, “FUMARATE COMPOUNDS, PHARMACEUTICAL COMPOSITIONS THEREOF, AND METHODS OF USE” (priority 2015, published 2017).

aqueous solubility: poor
SMILES: COC(=O)/C=C/C(=O)OC [DMF, dimethylfumarate]
